Assay results from patent publication US7303758B2 (Cordis Corporation, priority 2004, dated 2007).

Tests used:
[1] = test system: human coronary artery smooth muscle cell proliferation; test: In vitro cell culture study of coronary artery smooth muscle cell proliferation; format: cell-based
Text: FIG. 51 is a graph of the inhibition of coronary artery smooth muscle cells by trichostatin A in a cell culture study.

[2] = test system: tumor cell lines; settings: cited from earlier work
[3] = In vivo release kinetics from PVDF basecoat with PVDF topcoat, porcine pharmacokinetics studies; settings: six hundred micro grams basecoat, two hundred micro grams topcoat
Text: The topcoat is two hundred micro grams.

[4] = test system: non-synchronized cultured human coronary artery smooth muscle cells; test: Anti-proliferative activity of rapamycin with varying mycophenolic acid concentrations; format: cell-based; settings: mycophenolic acid zero to one thousand nano molar, two percent fetal bovine serum
Text: The multiple curves represent various concentrations of mycophenolic acid ranging from zero to one thousand nano molar concentrations. […] This potentiation observed in cultured coronary artery smooth muscle cells preferably translates to an enhancement in anti-restenotic efficacy following vascular injury and a reduction in the required amount of either agent to achieve the desired anti-restenotic effect.

[5] = In vivo release kinetics from EVA/BMA basecoat, porcine pharmacokinetics studies; settings: basecoat 180 μg rapamycin, 180 μg mycophenolic acid, 240 μg EVA/BMA, with or without BMA topcoat

CC(/C=C/C(=O)NO)=C\[C@@H](C)C(=O)c1ccc(N(C)C)cc1 [trichostatin A]
IC50 ([1]; human coronary artery smooth muscle cells, read-out: anti-proliferative IC50): ~6 nM | inhibition of human coronary artery smooth muscle cell proliferation ([1]; in vitro cell culture): completely inhibit | anti-proliferative IC50 [2]: low nM range

CO[C@H]1C[C@@H]2CC[C@@H](C)[C@@](O)(O2)C(=O)C(=O)N2CCCC[C@H]2C(=O)O[C@H]([C@H](C)C[C@@H]2CC[C@@H](O)[C@H](OC)C2)CC(=O)[C@H](C)/C=C(\C)[C@@H](O)[C@@H](OC)C(=O)[C@H](C)C[C@H](C)/C=C/C=C/C=C/1C [Rapamycin, rapamycin]
in vivo release rate from PVDF basecoat with PVDF topcoat [3]: slower release rate than that of mycophenolic acid

COc1c(C)c2c(c(O)c1C/C=C(\C)CCC(=O)O)C(=O)OC2 [mycophenolic acid]
effect on anti-proliferative rapamycin dose response curve [4]: potentiates the anti-proliferative activity of rapamycin | in vivo release from EVA/BMA basecoat [5]: elutes more completely over a shorter duration than the rapamycin
